Values quoted from earlier work in patent US20240197806A1, “EBELIN LACTONE OR BACOGENIN A1 ENRICHED COMPOSITION AND METHOD OF PREPARATION THEREOF” (priority 2022, published 2024).

Key:
[1] = Ramasamy et al., PLoS One 2015
[2] = Ramasamy et al., PLoS One 2015; remark: listed apart in the source
[3] = molecular target: 5-HT2A receptors (Homo sapiens, UniProt P28223); details: read-out: Ki, binding to the 5-HT2A receptors
5-HT2A receptors, sequence (P28223 whole entry): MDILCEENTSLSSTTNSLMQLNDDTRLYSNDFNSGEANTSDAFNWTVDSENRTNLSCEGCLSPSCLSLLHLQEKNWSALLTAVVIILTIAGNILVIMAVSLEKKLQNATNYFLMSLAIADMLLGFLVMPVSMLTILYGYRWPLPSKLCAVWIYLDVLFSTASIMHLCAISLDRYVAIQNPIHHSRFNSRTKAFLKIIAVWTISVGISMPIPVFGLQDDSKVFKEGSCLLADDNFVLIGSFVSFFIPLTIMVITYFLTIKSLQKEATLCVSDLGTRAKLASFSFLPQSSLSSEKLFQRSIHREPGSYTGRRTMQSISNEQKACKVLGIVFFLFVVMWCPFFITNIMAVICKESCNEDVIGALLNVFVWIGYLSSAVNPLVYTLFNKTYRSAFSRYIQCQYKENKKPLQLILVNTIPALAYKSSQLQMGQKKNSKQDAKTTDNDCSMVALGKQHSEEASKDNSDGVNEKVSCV

Molecule: CC1=CC(C)(C)O[C@@]1(C)C1C(=O)C[C@]2(CO)C1CCC1[C@@]3(C)CC[C@H](O)C(C)(C)C3CC[C@]12C (stereo partly drawn) [bacogenin A1]
- intestinal absorption [1]: same absorption parameters as jujubogenin and pseudojujubogenin

Molecule: CC(C)=C[C@@H]1CO[C@]23C[C@]4(CO2)[C@H](CC[C@@H]2[C@@]5(C)CC[C@H](O[C@@H]6OC[C@H](O)[C@H](O[C@@H]7O[C@H](CO)[C@@H](O)[C@H](O)[C@H]7O)[C@H]6O[C@@H]6O[C@@H](CO)[C@H](O)[C@H]6O)C(C)(C)[C@@H]5CC[C@]24C)[C@H]3[C@@]1(C)O [bacopasaponin C]
- intestinal absorption [1]: poor
- ability to cross the blood brain barrier / blood brain barrier penetration [2]: not able to cross

Molecule: CC(C)=C[C@H]1C[C@](C)(O)[C@@H]2[C@H]3CC[C@@H]4[C@@]5(C)CC[C@H](O[C@@H]6OC[C@H](O)[C@H](O[C@@H]7O[C@H](CO)[C@@H](O)[C@H](O)[C@H]7O)[C@H]6O[C@@H]6O[C@@H](CO)[C@H](O)[C@H]6O)C(C)(C)[C@@H]5CC[C@@]4(C)[C@@]34CO[C@@]2(C4)O1 [bacopaside X]
- intestinal absorption [1]: poor
- ability to cross the blood brain barrier / blood brain barrier penetration [2]: not able to cross

Molecule: CC(C)=C[C@H]1C[C@](C)(O)[C@H]2[C@H]3CC[C@@H]4[C@@]5(C)CC[C@H](O[C@@H]6O[C@H](CO)[C@@H](O)[C@H](O[C@@H]7O[C@H](CO)[C@@H](O)[C@H](O)[C@H]7O)[C@H]6O[C@@H]6O[C@@H](CO)[C@H](O)[C@H]6O)C(C)(C)[C@@H]5CC[C@@]4(C)[C@@]34CO[C@@]2(C4)O1 [bacoside A3]
- intestinal absorption [1]: poor
- ability to cross the blood brain barrier / blood brain barrier penetration [2]: not able to cross

Molecule: CC(C)=C/C=C/C(C)=C/C1CCC2[C@@]3(C)CC[C@H](O)C(C)(C)C3CC[C@@]2(C)[C@@]12COC(=O)C2 (stereo partly drawn) [ebelin lactone]
- ability to cross the blood brain barrier / blood brain barrier penetration [2]: very high
- Ki [3]: 4.21 µM

Molecule: CC(C)=CC1C[C@](C)(O)C2C3CCC4[C@@]5(C)CC[C@H](O)C(C)(C)C5CC[C@@]4(C)[C@]34CO[C@]2(C4)O1 (stereo partly drawn) [jujubogenin]
- intestinal absorption [1]: good
- ability to cross the blood brain barrier / blood brain barrier penetration [2]: able to cross

Molecule: CC(C)=CC1COC23CC4(CO2)C(CCC2C5(C)CCC(O)C(C)(C)C5CCC24C)C3C1(C)O (stereo not drawn) [pseudojujubogenin]
- intestinal absorption [1]: good
- ability to cross the blood brain barrier / blood brain barrier penetration [2]: able to cross

Molecule: bacopaside II
- intestinal absorption [1]: poor
- ability to cross the blood brain barrier / blood brain barrier penetration [2]: not able to cross
